Assay results: ChEMBL document CHEMBL1201862, “PubChem BioAssay data set” (2004)
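How tested: cells in 96-well plates exposed to compound for 48 hours at five concentrations. Abbreviation: GI50, concentration required for 50% inhibition of growth.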 Active and inactive are the calls of the source. Cut-off read from the data, not from the text of the source: active = GI50 up to about 1.1 µM and inactive = higher.

Assays:
Assay in all cases: NCI-60 cell line screen, 48 h
[1] = tested on: SK-MEL-28
[2] = tested on: SN12C
[3] = tested on: OVCAR-8
[4] = tested on: KM12
[5] = tested on: UACC-62
[6] = tested on: SK-MEL-5
[7] = tested on: MOLT-4
[8] = tested on: A549
[9] = tested on: SF-268
[10] = tested on: IGROV-1
[11] = tested on: SK-MEL-2
[12] = tested on: NCI-H23
[13] = tested on: UO-31
[14] = tested on: NCI-H460
[15] = tested on: HCT-116
[16] = tested on: Malme-3M
[17] = tested on: RXF 393
[18] = tested on: HT-29
[19] = tested on: UACC-257
[20] = tested on: OVCAR-4

SMILES	GI50 [1]	GI50 [2]	GI50 [3]	GI50 [4]	GI50 [5]	GI50 [6]	GI50 [7]	GI50 [8]	GI50 [9]	GI50 [10]	GI50 [11]	GI50 [12]	GI50 [13]	GI50 [14]	GI50 [15]	GI50 [16]	GI50 [17]	GI50 [18]	GI50 [19]	GI50 [20]
COc1cc(C2C(Cl)C(=O)N2NC(=O)c2ccccc2O)ccc1O (centres undefined)	> 100 µM (inactive)	> 100 µM (inactive)	70.8 µM (inactive)	> 100 µM (inactive)	> 100 µM (inactive)	> 100 µM (inactive)	> 100 µM (inactive)	> 100 µM (inactive)	> 100 µM (inactive)	> 100 µM (inactive)	> 100 µM (inactive)	> 100 µM (inactive)	> 100 µM (inactive)	> 100 µM (inactive)	> 100 µM (inactive)	> 100 µM (inactive)	0.0612 µM (active)	> 100 µM (inactive)	> 100 µM (inactive)	
Cc1nc2c(c(=O)[nH]1)S/C(=C(/C#N)c1nc3ccccc3[nH]1)N2c1ccccc1	> 100 µM (inactive)	> 100 µM (inactive)	> 100 µM (inactive)	> 100 µM (inactive)	> 100 µM (inactive)	> 100 µM (inactive)	> 100 µM (inactive)	> 100 µM (inactive)	> 100 µM (inactive)	> 100 µM (inactive)	> 100 µM (inactive)	> 100 µM (inactive)	> 100 µM (inactive)	> 100 µM (inactive)	> 100 µM (inactive)	> 100 µM (inactive)	> 100 µM (inactive)	> 100 µM (inactive)	> 100 µM (inactive)	> 100 µM (inactive)
Cc1ccc(NP(=O)(Oc2ccccc2)N(CCCl)CCCl)cc1 (centres undefined)	> 100 µM (inactive)	91 µM (inactive)	99.1 µM (inactive)	91 µM (inactive)	> 100 µM (inactive)	74.5 µM (inactive)	9.04 µM (inactive)	48.2 µM (inactive)	80.5 µM (inactive)	90.8 µM (inactive)	41.6 µM (inactive)	61.5 µM (inactive)	76.4 µM (inactive)		21.2 µM (inactive)	92.7 µM (inactive)		26.1 µM (inactive)	28.6 µM (inactive)	51.3 µM (inactive)
CN(C(=O)c1ccccc1)c1ccc2c(c1)C(=O)c1ccccc1C2=O	> 100 µM (inactive)	> 100 µM (inactive)	> 100 µM (inactive)	> 100 µM (inactive)	> 100 µM (inactive)		> 100 µM (inactive)		> 100 µM (inactive)	> 100 µM (inactive)	> 100 µM (inactive)	> 100 µM (inactive)	> 100 µM (inactive)	> 100 µM (inactive)	> 100 µM (inactive)	> 100 µM (inactive)	> 100 µM (inactive)	> 100 µM (inactive)	> 100 µM (inactive)	> 100 µM (inactive)
O=C(CCl)NNC1=Nc2ccc(Cl)cc2SC1	2.03 µM (inactive)	1.95 µM (inactive)	1.4 µM (inactive)	5.02 µM (inactive)	2.12 µM (inactive)	2.36 µM (inactive)	1.12 µM (active)	9.33 µM (inactive)	1.69 µM (inactive)	1.95 µM (inactive)	3.66 µM (inactive)	2.47 µM (inactive)	1.86 µM (inactive)	6.79 µM (inactive)	1.64 µM (inactive)	1.69 µM (inactive)	1.9 µM (inactive)	1.85 µM (inactive)	3.23 µM (inactive)	2.12 µM (inactive)
COc1ccc(N2C(Cl)C(=O)C2c2c[nH]c3ccccc23)cc1 (centres undefined)	> 100 µM (inactive)	> 100 µM (inactive)	> 100 µM (inactive)	> 100 µM (inactive)	> 100 µM (inactive)	> 100 µM (inactive)	> 100 µM (inactive)	> 100 µM (inactive)	> 100 µM (inactive)	> 100 µM (inactive)	> 100 µM (inactive)	> 100 µM (inactive)	51.9 µM (inactive)	> 100 µM (inactive)	> 100 µM (inactive)	72.6 µM (inactive)	> 100 µM (inactive)	> 100 µM (inactive)	> 100 µM (inactive)	> 100 µM (inactive)
CC(=O)c1c(-c2ccco2)c(C#N)c(=S)n(C2OC(CO)C(O)C(O)C2O)c1C (centres undefined)	87.7 µM (inactive)	71.3 µM (inactive)	> 100 µM (inactive)	> 100 µM (inactive)	78.9 µM (inactive)	60.3 µM (inactive)	47.2 µM (inactive)	> 100 µM (inactive)	> 100 µM (inactive)	> 100 µM (inactive)		> 100 µM (inactive)	56.6 µM (inactive)	> 100 µM (inactive)	> 100 µM (inactive)	> 100 µM (inactive)	> 100 µM (inactive)	> 100 µM (inactive)	> 100 µM (inactive)	75 µM (inactive)
